Test results from patent US20020004458A1, “Methods for inducing production of isoflavone levels in plants using nuclear receptor ligands” (priority 2000, published 2002).

What was measured:
Assay type in all cases: in vivo
[1] = system: soybean cotyledons (cultivar Williams); assay: Soybean cut cotyledon assay: loading of daidzein conjugate / isoflavone pools; conditions: for Percent increase in total daidzein conjugate pools compared to a water control (Table 2) / Percent increase in total daidzein conjugate pools compared to a water control (Table 4): 33 uM, average of two experiments
Protocol: (§1) The cut cotyledon assay is used to investigate both the ability of the nuclear receptor ligand to activate basal elicitation competency in plants, and to evaluate the ability of a second compound such as the glucan defense elicitor from the fungal pathogen Phytophthora sojae to enhance glyceollin elicitation competency in plants in which the isoflavone pools were “loaded” by the action of the ligand. The level of isoflavones in the cotyledon tissues are measured after the addition of different nuclear receptor ligands to determine the effectiveness of each in inducing the basal production of isoflavones in cotyledon tissues. In such studies, the addition of the nuclear receptor ligand first “primes” the cut cotyledon, i.e., increases the levels of the isoflavone daidzen. That is, the competency for the elicitation of the phytoalexin glyceollin in response to the glucan elicitor from Phytophthora sojae is already partially activated. This means that increases in the isoflavone daidzein, which is the precursor for glyceollin, are usually rapidly shunted into glyceollin when the glucan defense elicitor is added to the system. Thus, the ability of the ligand to enhance glyceollin elicitation competency by “loading” the isoflavone pools can also be measured.
(§2) Cotyledons from 7-8 day old soybean seedlings are removed from the plant and cut on the lower surface to expose subepidermal tissues. A 30 p,L drop of test compound (elicitor and/or loader) is placed on the cut surface. Ten cotyledons are used per treatment and arranged in a petri plate containing a wet filter paper to keep the cotyledons moist. After incubation at room temperature at approximately 200 p.Einsteins of light for 48 hr the cotyledon tissues are harvested for analysis. Tissues for analysis are harvested by cutting a vertical column of cells from the cotyledon using a number 1 cork borer. The column of cells is then subsampled by cutting slices of cells progressively away from the original cut surface. The first section is approximately 4 cell layers thick and the second two are approximately 8 cell layers thick. These allow the examination of proximal and distal effects of treatments, respectively. Tissues are analyzed by HPLC as noted below. Full details of this assay can be found in the publication: Graham, T. L., and Graham, M. Y. 1991. Glyceollin Elicitors Induce Major But Distinctly Different Shifts in Isoflavonoid Metabolism in Local and Distal Cell Populations. Molecular Plant Microbe Interactions 4:60-68, which is specifically incorporated herein by reference.
(§3) High performance liquid chromatography (HPLC) is the . method of choice for determining the levels of isoflavone defense compounds in soybean. With a single HPLC analysis, one gets a complete and quantitative profile of up to 50 or more aromatic compounds, including all the isoflavones and their conjugates and the phytoalexins, including glyceollin. As little as 20 mg of plant tissue is needed and the method can be readily applied to cotyledon, leaf or any soybean tissue. This analytical method allows us to determine the nmoles/gm of each metabolite, which can then readily be processed to compare the percent increase or decrease of a given metabolite in comparison to either water or glucan treated control tissues. Routinely, tissues are extracted in 80% ethanol and subjected to water/acetonitrile gradient elution from a C18 reverse phase HPLC column. Full details of this procedure can be found in the publication: Graham, T. L. 1991. A Rapid, High Resolution High Performance Liquid Chromatography Profiling Procedure for Plant and Microbial Aromatic Secondary Metabolites. Plant Physiology 95:584-593, which is specifically incorporated herein by reference.
(§4) Cotyledons (10 per treatment) from 7 day old Williams variety soybean were treated with a formulation comprising estrogens, estrogen agonists, and peroxisome proliferators. […]

[2] = system: soybean cotyledons (cultivar Williams); assay: Soybean cut cotyledon assay: potentiation of glyceollin (phytoalexin) elicitation by glucan elicitor; conditions: 33 uM, applied immediately before glucan elicitor and 10 uM orthovanadate, 48 hr, average of two experiments
Protocol: as §1, §2, §3, §4

[3] = system: soybean cotyledons (cultivar Williams); assay: Soybean snapped cotyledon assay: loading of isoflavone (daidzein) conjugate pools
Protocol: The snapped cotyledon assay is a minimal wound assay used to investigate the effects of test compounds in a non-primed background. The assay is performed by snapping cotyledons in two and placing the petiole side down in 0.5% water agar. Ten snapped cotyledons are used per treatment, and the subepidermal cells exposed by snapping are treated with glucan defense elicitor and/or the effector being examined. The cotyledons are incubated in the light for 48 hr as in the cut cotyledon assay. Both proximal (first cell layer) and distal (second and third cell layers) are harvested for analysis by HPLC (see below). Full details of this assay can be found in the publication: Graham, T. L. and Graham, M. Y. 1996. Signaling in soybean phenylpropanoid responses: dissection of primary, secondary and conditioning-effects of light, wounding and elicitor treatments. Plant Physiol. 110:1123-1133, which is specifically incorporated herein by reference.
The snapped cotyledon assay is “naive”. That is, it is not pre-disposed or primed for competency for the elicitation of phytoalexin glyceollin in response to the glucan elicitor. Thus, treatment with the glucan elicitor induces the formation of the isoflavones daidzein and genistein, but very little glyceollin. This is an excellent assay to study the effects of a chemical treatment on isoflavone metabolism by itself or in combination with the glucan. In the absence of the glucan, it gives an excellent picture of the effects of the compound alone on isoflavone metabolism. In the presence of the glucan, it tells us if the test compound can induce elicitation competency for the glyceollin response to the glucan.
as §3
Cotyledons (10 per treatment) from 7 day old Williams variety soybean were treated with a formulation comprising estrogens, estrogen agonists, and peroxisome proliferators. Each NRL was dissolved either in water or first in isopropanol to give a saturated solution followed by rapid dilution in water. […] NRLs were tested over a concentration range of about 10 uM to 1 mM, using serial 3 fold dilutions from 1 mM. NRLs were tested both alone and in the presence of 30 ug/ml of the glucan elicitor from the fungal pathogen Phytophthora sojae. Concentrations of the NRL and glucan noted here are final concentrations on the treated cotyledon.
The exposed surface of each snapped cotyledon was treated with 7 μL of the NRL followed by 7 μL of the glucan or water. Cotyledons were incubated in constant light (200 t;,Einsetins) for 48 hr. At 48 hr, a thin (translucent) section was harvested from the treated cotyledon surface. Sections from the 10 cotyledons for each treatment were pooled and extracted in 80% ethanol (400 μL for each 50 mG fresh weight). The extract was then subjected to HPLC as described above. […]

[4] = system: cotyledons of lima bean, mung bean, green bean, peanuts, and chickpeas; assay: Cut cotyledon assay on legumes other than soybean: increase in isoflavones; conditions: ergosterol at 100 p,M; range in each plant species; isoflavones identified by ultraviolet spectra
soybean primary leaves = assay: Soybean leaf infiltration: isoflavone increases after ergosterol treatment; conditions: 48 hours, over control
Protocol: as §3
True leaves of soybean plants are also treated as described above in Example 1. For tests on true leaves of soybean or other plants, two methods are used. In the laboratory a small spot on the leaves is vacuum filtrated using a filter disc platform hooked to a water aspirator. The leaf is placed on the filter disc platform and mild suction applied. A drop of the glucan elicitor and the nuclear receptor ligand formulation is then placed on the exposed surface of the leaf and allowed to infiltrate the tissue through the leaf stomatal pores. For the greenhouse or field, the nuclear receptor ligand is added to a surfactant to emulsify and disperse the ligand. In all of these assays, the tissues are again analyzed by HPLC as described above.
Moreover, the isoflavone formononetin is normally found only as a trace metabolite in soybean tissues. It is commonly found in chickpea. Treatment of soybean leaves with a nuclear receptor ligand, however, caused very significant accumulations of daidzein and formononetin aglycones and genistein conjugates. […] Ergosterol was directly infiltrated into the primary leaves, which were analyzed after 48 hours.

[5] = cut cotyledon assay, Williams cotyledons, concentrations 50-500 p,M
[6] = 33 uM, average of two experiments
[7] = ergosterol 1 micromolar infiltrated into primary leaves
[8] = ergosterol 10 micromolar infiltrated into primary leaves
[9] = ergosterol 100 micromolar infiltrated into primary leaves

SMILES | Range of increase of isoflavones over the concentration range [1, 5] | Percent increase in glyceollin elicitation compared to a glucan elicitor control [2] [%] | Percent increase in total daidzein conjugate pools compared to a water control (Table 2) ([1]; cut cotyledon assay) [%] | Percent increase in total daidzein conjugate pools compared to a water control (Table 4) ([1]; cut cotyledon assay) [%] | Percent increase in daidzein conjugate pools compared to a water control (Table 3) [3, 6] | also measured
CC(=O)[C@H]1CC[C@H]2[C@@H]3CC=C4C[C@@H](O)CC[C@]4(C)[C@H]3CC[C@]12C [5-pregnenolone] | 5-20% | – | – | – | – | –
C[C@]12CC[C@@H]3c4ccc(O)cc4CC[C@H]3[C@@H]1CC[C@@H]2O [Beta-Estradiol, 17-beta-estradiol] | – | 205 | 64 | 64 | +64% | –
CC(C)(Oc1ccccc1Cl)C(=O)O [CPMPA, 2-(o-chlorophenoxy)-2-methylpropionic acid] | – | – | – | – | +42% | –
CC(C)(Oc1ccc(C2CC2(Cl)Cl)cc1)C(=O)O (centres unmarked) [Ciprofibrate, ciprofibrate] | – | 199 | 52 | 52 | +52% | –
O=c1oc2cc(O)ccc2c2oc3cc(O)ccc3c12 [Coumestrol] | – | 226 | 54 | 54 | – | –
C/C=C(/C(=C/C)c1ccc(O)cc1)c1ccc(O)cc1 [Dienestrol, dienestrol] | – | 75 | 28 | 28 | +28% | –
CC/C(=C(/CC)c1ccc(O)cc1)c1ccc(O)cc1 [Diethylstilbestrol, diethylstilbestrol] | – | 86 | 36 | 38 | – | –
CC(C)[C@@H](C)/C=C/[C@@H](C)[C@H]1CC[C@H]2C3=CC=C4C[C@@H](O)CC[C@]4(C)[C@H]3CC[C@]12C [Ergosterol, ergosterol] | – | 260 | 60 | 60 | +60% | Increases in isoflavones [4]: 2-60 fold; Increase in Daidzein Aglycone (soybean primary leaves; [7]): 5X; Increase in Formononetin Aglycone (soybean primary leaves; [7]): 24X; Increase in Genistein Conjugates (soybean primary leaves; [7]): 2X; Increase in Daidzein Aglycone (soybean primary leaves; [8]): 3X; Increase in Formononetin Aglycone (soybean primary leaves; [8]): 27X; Increase in Genistein Conjugates (soybean primary leaves; [8]): 1.1X; Increase in Daidzein Aglycone (soybean primary leaves; [9]): 2.4X; Increase in Formononetin Aglycone (soybean primary leaves; [9]): 4X; Increase in Genistein Conjugates (soybean primary leaves; [9]): None
C[C@]12CC[C@@H]3c4ccc(O)cc4CC[C@H]3[C@@H]1C[C@@H](O)[C@@H]2O [Estriol, estriol] | – | 177 | 45 | 45 | +45% | –
O=c1c(-c2ccc(O)cc2)coc2cc(O)cc(O)c12 [Genistein, genistein] | – | – | – | – | – | Percent increase in daidzein conjugate pools compared to a water control (Table 3) ([3]; genistein applied as smaller doses on an hourly basis for 8 hours): +54%
CC(=O)[C@H]1CC[C@H]2[C@@H]3CCC4=CC(=O)CC[C@]4(C)[C@H]3CC[C@]12C [Progesterone, progesterone] | 20-60% | – | – | – | – | –
C[C@H]1CCCC(=O)CCC/C=C/c2cc(O)cc(O)c2C(=O)O1 [Zearalenone, zearalenone] | – | 242 | 58 | 58 | – | –
C[C@]12CC[C@@H](O)C[C@@H]1CC[C@@H]1[C@@H]2CC[C@]2(C)C(=O)CC[C@@H]12 [androsterone] | – | – | – | – | – | Range of increase of isoflavones over the concentration range ([1]; in vivo): 30-40%
C[C@]12CCC(=O)C=C1CC[C@@H]1[C@@H]2C(=O)C[C@@]2(C)[C@H]1CC[C@]2(O)C(=O)CO [cortisone] | 30-100% | – | – | – | – | –
C[C@@H]1C[C@H]2[C@@H]3CCC4=CC(=O)C=C[C@]4(C)[C@@]3(F)[C@@H](O)C[C@]2(C)[C@@]1(O)C(=O)CO [dexamethasone] | 0-10% | – | – | – | – | –
C[C@]12CCC(=O)C=C1CC[C@@H]1[C@@H]2[C@@H](O)C[C@@]2(C)[C@H]1CC[C@]2(O)C(=O)CO [hydrocortisone] | 25-50% | – | – | – | – | –
